In patent publication US20220362299A1, “ENGINEERED NATURAL KILLER CELLS AND METHODS FOR USING THE SAME IN IMMUNOTHERAPY AND AUTOPHAGY INHIBITON TECHNIQUES” (Purdue Research Foundation, priority 2019, published 2022):

Experiments:
GBM43-Luc cells = experiment: Orthotopic GBM43 (Luc) xenograft model; assay type: in vivo, NSG mice
Experimental: Additionally, orthotopic GBM xenografts were generated using NSG mice as previously described. Briefly, on day 0, the GBM43 (Luc) cells (1×10^5) were stereotactically implanted into the right forebrain through a digitalized stereotactic delivery system. […] CD73.mCAR-pNK cells were administered once a week for three weeks. Tumor volumes were monitored and recorded using the Spectral Ami Optical imaging system. Body weights of the mice were also recorded during the treatment period. At the end of the treatment, the mice were sacrificed and whole brain tissues from each mouse were harvested for adenosine measurement and IHC/IF analyses.
(§1) Immunohistochemistry (IHC) and immunofluorescence (IF) staining were carried out at the Histology Research Laboratory at the Purdue University College of Veterinary Medicine (West Lafayette, Ind.). Briefly, the tumors were fixed in 10% neutral-buffered formalin, embedded in paraffin, and cut into 3-5 μm sections.
For intracranial GBM xenografts, the NK cells in tumors were detected through the staining using human NKp46/NCR1 antibody. CCL5 and CXCL10 expression in the tumors were detected through the staining using human CCL5/RANTES antibody and CXCL10 antibody, respectively. CD73 expression in the tumors was detected through the staining using human CD73 antibody.
In addition to the foregoing, intratumoral adenosine concentrations were also assessed. Brain tissues were harvested post-treatment, rinsed with cold PBS and homogenized in PBS. After that, the suspension was centrifuged at 10,000 g for 10 minutes at 4° C. and the supernatant was collected. Adenosine concentrations were determined using an Adenosine Assay Kit according to the manufacturer's directions. The IHC staining was performed as described above.

GBM43 cells [1] = experiment: GBM43 cell viability after CQ treatment (CCK-8); assay type: cell-based, human; details: 24 h
Experimental: Alternatively, autophagy was inhibited pharmacologically via treatment with chloroquine (CQ), a common FDA-approved autophagy inhibitor (see FIG. 11). These targeting approaches were tested on both NK cell infiltration and effector functions. For this approach, GBM43 cells were treated with different concentrations of CQ. To determine in vitro cell viability in response to CQ, GBM43 cells were seeded in 96-well plates at a density of 1×10^4 cells/well. After overnight culture, the cells were treated with different concentrations of CQ and incubated for another 24 hours. The cell viability was then determined with CCK-8 assay analysis.

GBM43 cells [2] = experiment: ELISA of CCL5 and CXCL10 in supernatant of GBM43 cells; assay type: cell-based, human; details: CQ 50 μM, 24 h
Excerpt: To evaluate changes in the protein levels of these chemokines and gain more insight into the underlying molecular mechanisms, chemokine concentrations were quantified in the conditioned media of CQ-treated GBM43 cells using ELISA in absence and presence of various pharmacological inhibitors driving signaling pathways for these chemokines. This included the PI3K inhibitor LY294002, NF-κB inhibitor BAY11-7082 and JNK inhibitor SP600125.
More specifically, to measure secreted CCL5 and CXCL10, GBM43 cells were treated with CQ at a final concentration of 50 μM in presence or absence of various small molecule inhibitors, including LY294002, BAY11-7082 and SP600125 for 24 hours. Supernatants were collected and the levels of CCL5 and CXCL10 were quantified using Human CCL5 and CXCL10 Biolegend-ELISA MAX™ Deluxe Sets according to the manufacturer's directions. To look at the levels of multiple chemokines secretion from GBM43 cells, the cell culture supernatants were also collected and all the selected targets were determined with the chemokine array provided by Eve Technologies (Calgary, Canada).

GBM43 cells [3] = experiment: Subcutaneous GBM43 xenograft model; assay type: in vivo, NSG mice
Experimental: Subcutaneous GBM xenografts were established by inoculating NSG mice with 3×10^6 GBM43 cells in the right flank. Ten days later, when tumors reached a volume of about 80 mm^3, mice were randomly assigned to 5 groups (n=4/group) and treated according to one of the following protocols: (1) PBS only; (2) intravenous (IV) injection of 5×10^6 pNK cells alone; (3) intravenous (IV) injection of 5×10^6 CD73.mCAR-pNK cells alone (Construct 1); (4) intraperitoneal (IP) injection of CQ (50 mg/kg) alone. NK cells were administered once a week for three weeks. The mice receiving adoptive NK cells therapy (groups 2 and 3) also received IL-15 (0.5 μg/mice) by IP injection every 3-4 days. Tumor growth was followed by caliper measurements and tumor volumes were calculated using the formula: V=0.52×L×W×H as described above. Body weights of the mice were recorded throughout the treatment. At the end of the therapy, the mice were sacrificed and tumors were harvested for histologic (IHC/IF) analyses.
as §1
CCL5 and CXCL10 expression in the tumors were detected through the staining using human CCL5/RANTES antibody and CXCL10 antibody respectively. The staining was evaluated based on the intensity (weak=1, moderate=2, and high=3) of chemokine immunostaining and the density (0%=0, 1-40%=1, 41-75%=2, >76%=3) of positive tumor cells. The final score of each sample was multiplied by the intensity and density.
For subcutaneous GBM43 xenografts, NK cell infiltration was investigated by IF staining performed with the following stains: Protein L (Alexa 647, far red), NKp46 (Alexa 488, green) and DAPI nuclear counterstain. CCL5 and CXCL10 expression were evaluated by IHC staining as described above. CD73 expression in the tumors was detected through the staining using human CD73 antibody.
The treatment schedule is summarized in FIG. 17, subpart A. Briefly, 3×10^6 GBM43 cells were subcutaneously (SC) implanted into the right flank of the mice (Day 0). 10 days later (Day 10), mice in the CQ group were intraperitoneally (IP) injected with CQ at 50 mg/kg for 3 weeks, once a week. One day later (Day 11), the mice in pNK and CD73.mCAR-pNK groups were treated with 5×10^6 adoptively-transferred pNK or CD73.mCAR-pNK cells intravenously (IV), once a week for 3 weeks. Starting on the day of the first injection of NK cells, all mice received 0.5 μg of IL-15 once every 3-4 days IP.

Substance: Chloroquine diphosphate salt [CQ]
- tumor growth (bioluminescence imaging) (GBM43-Luc cells; CQ 50 mg/kg IP, CD73.mCAR-pNK intracranial, weekly for three weeks, vs control group): no significant effect
- CCL5 expression in tumor tissues (IHC) (GBM43-Luc cells; mouse, in vivo): robustly up-regulated
- CXCL10 expression in tumor tissues (IHC) (GBM43-Luc cells; mouse, in vivo): robustly up-regulated
- crossing of the blood-brain barrier in vivo (GBM43-Luc cells; mouse, in vivo): able to cross the blood-brain barrier
- IC50 (GBM43 cells [1]): 67.1 µM
- secreted CCL5 vs untreated control cells (GBM43 cells [2]): significantly higher amounts
- secreted CXCL10 vs untreated control cells (GBM43 cells [2]): significantly higher amounts
- mean tumor volume (GBM43 cells [3]; NK cells 5×10^6 IV once a week for 3 weeks, CQ 50 mg/kg IP, PBS group 1475): 953.25 mm^3
- CCL5 in tumor tissues (IHC) (GBM43 cells [3]; mouse, in vivo): significantly higher presence
- CXCL10 in tumor tissues (IHC) (GBM43 cells [3]; mouse, in vivo): significantly higher presence
- mean tumor weight (GBM43 cells [3]; necropsy day 28 post-start of treatment, PBS group 2.31): 1.16 g
- expression of CD73 on tumors (IHC) (GBM43 cells [3]; vs other treatment groups): lower level
